Reference: patent US11364390B2, “Apparatus for treating pathological cells” (priority 2017, dated 2022)

What was measured:
[1] = test system: neuroblastoma cells CHLA255; assay: Cell viability assay (live cell count) on cultured neuroblastoma cells CHLA255; assay type: cell-based; conditions: cisplatin 500 nM once a day, combination with electromagnetic field 2 hours a day, FIG. 6
Description: Cell Lines and Methods of Culture: Neuroblastoma cells, CHLA255, which are adherent cells, are grown in 37° C. incubator with 10% fetal calf serum in McCoy's medium containing 5% carbon dioxide and saturated water vapor. Cell viability assay: Neuroblastoma cells, CHLA255, were seeded in 6-well plates at a density of 1×10^5 cells/well. […] Statistical Analysis: Each irradiation conditions repeated three times, each three holes, the results were mean±standard error, the results do T test, with P<0.05 as a significant difference in indicators.

[2] = test system: Nephroblastoma G401; assay: Tumor growth inhibition in vivo, G401 nephroblastoma model in nude mice; conditions: cisplatin 20 mg/kg three times a week, irradiation about 90 minutes a day, P<0.05, FIG. 9
Source text: Example 7: G401 nephroblastoma model was established in nude mice and the animals were randomly divided into 4 groups with 8 mice in each group. […] Tumor models were established: Male nude mice were infants aged 3-4 weeks old. Nephroblastoma G401 was inoculated into the axilla and the number was 5×10^6/volume. The volume was 200 microliters. After one week of inoculation, the tumor could be touched. The animals were randomized groups, control group, irradiation group, cisplatin group, combined groups, treated separately. […] The control animals were placed in the animals irradiated with electromagnetic field-free coils for 90 minutes every day, and injected intraperitoneally with the same volume of physiology Saline; all animals were sacrificed 3 days after the neck, the eyeball to take whole blood, EDTA anticoagulant, after centrifugation to take the biochemical indicators of blood plasma, remove underarm growth tumor, weighed tumor weight, tissue cryopreservation. Statistical analysis: Each group of 8 animals, the results were mean±standard deviation, the results of T test, P<0.05 as a significant difference in indicators.

[3] = test system: nephroblastoma cells G401; assay: Cell viability assay (live cell count) on cultured nephroblastoma cells G401; assay type: cell-based; conditions: cisplatin 500 nM once a day, combination with electromagnetic field 2 hours a day, FIG. 5
Description: Cell Lines and Methods of Culture: Nephroblastoma cells G401, adherent cells, were cultured in McCoy's medium with 10% fetal bovine serum at 37° C. in an incubator containing 5% carbon dioxide and saturated water vapor. Cell viability assay: […] cells were seeded into 6-well plates at a density of 1×10^5 cells/well. […] Statistical Analysis: Each irradiation conditions repeated three times, each three holes, the results were mean±standard error, the results do T test, with P<0.05 as a significant difference in indicators.

## N.N.[Cl][Pt][Cl] [cisplatin]
[1]
  cell inhibition rate: increase
  cell proliferation (number of cells): slow proliferation
[2]
  tumor weight compared with the control group: no significant difference
[3]
  cell inhibition rate: increase
  cell proliferation (number of cells): slow proliferation
